Reference: ChEMBL document CHEMBL5465560, “Selectivity Literature for EUbOPEN Chemogenomic Library” (2024)

What was measured:
[1] = target: Cyclin-dependent kinase 13 (Homo sapiens, UniProt Q14004); assay: Selectivity interaction (KinomeScan (DiscoverX)) EUB0000229b CDK13; details: at 10 µM
[2] = target: T1, Serine/threonine-protein kinase ULK1 (Homo sapiens) (UniProt O75385); assay: Selectivity interaction (KinomeScan (DiscoverX)) EUB0000655a ULK1; details: at 10 µM
T1 sequence (whole entry): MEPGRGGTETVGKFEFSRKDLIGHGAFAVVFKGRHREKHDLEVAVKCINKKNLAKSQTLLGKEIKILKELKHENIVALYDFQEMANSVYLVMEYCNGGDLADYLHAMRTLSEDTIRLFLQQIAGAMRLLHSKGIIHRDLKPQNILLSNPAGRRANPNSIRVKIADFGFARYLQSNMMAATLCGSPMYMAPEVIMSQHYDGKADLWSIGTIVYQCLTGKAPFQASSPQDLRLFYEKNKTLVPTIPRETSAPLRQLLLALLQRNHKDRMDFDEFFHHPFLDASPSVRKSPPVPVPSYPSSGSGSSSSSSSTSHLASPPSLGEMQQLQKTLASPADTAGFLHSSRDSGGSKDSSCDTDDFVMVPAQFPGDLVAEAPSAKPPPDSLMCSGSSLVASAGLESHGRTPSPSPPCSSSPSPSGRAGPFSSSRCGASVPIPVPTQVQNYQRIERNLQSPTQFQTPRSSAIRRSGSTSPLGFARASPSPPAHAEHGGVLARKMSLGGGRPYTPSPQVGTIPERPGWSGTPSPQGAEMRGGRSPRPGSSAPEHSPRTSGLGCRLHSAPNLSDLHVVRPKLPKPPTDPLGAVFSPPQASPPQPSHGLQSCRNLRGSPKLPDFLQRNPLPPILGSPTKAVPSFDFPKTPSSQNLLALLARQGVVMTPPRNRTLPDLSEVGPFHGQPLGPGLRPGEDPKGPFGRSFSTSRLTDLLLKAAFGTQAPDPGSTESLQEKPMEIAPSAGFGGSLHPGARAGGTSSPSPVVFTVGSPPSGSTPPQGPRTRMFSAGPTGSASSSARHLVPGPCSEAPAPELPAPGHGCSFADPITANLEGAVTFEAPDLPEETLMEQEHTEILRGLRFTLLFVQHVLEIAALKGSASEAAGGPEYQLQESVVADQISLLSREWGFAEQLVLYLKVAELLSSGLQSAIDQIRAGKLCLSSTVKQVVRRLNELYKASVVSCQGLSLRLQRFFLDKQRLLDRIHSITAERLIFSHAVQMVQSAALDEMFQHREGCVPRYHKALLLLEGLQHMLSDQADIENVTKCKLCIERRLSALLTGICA

[3] = target: Serine/threonine-protein kinase 16 (Homo sapiens, UniProt O75716); assay: Selectivity interaction (LanthaScreen Eu Kinase Binding Assay) EUB0001632a STK16; details: at 10 µM
Serine/threonine-protein kinase 16, sequence (O75716 whole entry): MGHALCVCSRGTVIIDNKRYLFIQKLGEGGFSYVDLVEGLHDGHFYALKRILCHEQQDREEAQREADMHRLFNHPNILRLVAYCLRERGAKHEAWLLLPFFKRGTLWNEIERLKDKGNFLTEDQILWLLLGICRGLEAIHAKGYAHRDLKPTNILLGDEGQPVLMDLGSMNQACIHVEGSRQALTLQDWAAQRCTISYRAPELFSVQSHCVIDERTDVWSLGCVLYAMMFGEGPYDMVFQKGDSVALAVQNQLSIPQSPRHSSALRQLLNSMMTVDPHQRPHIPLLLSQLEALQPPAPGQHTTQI

[4] = target: Cell division control protein 42 homolog (Homo sapiens) (UniProt P60953); assay: Selectivity interaction (Kinase panel (Invitrogen)) EUB0000639a CDC42; details: at 200 nM
Cell division control protein 42 homolog (Homo sapiens), sequence (P60953 whole entry, looked up): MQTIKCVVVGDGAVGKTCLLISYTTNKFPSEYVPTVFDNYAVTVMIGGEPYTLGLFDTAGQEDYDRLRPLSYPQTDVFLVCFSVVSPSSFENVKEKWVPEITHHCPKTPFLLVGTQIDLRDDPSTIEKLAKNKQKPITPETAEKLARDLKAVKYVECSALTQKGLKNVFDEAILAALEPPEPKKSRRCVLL

[5] = target: T2, Tyrosine-protein kinase Tec (Homo sapiens) (UniProt P42680); assay: Selectivity interaction (ActivX KiNativ screen (kinase selectivity in THP-1 cell lysates)) EUB0000639a TEC; assay type: subcellular; details: lysate, at 0.2 µM
T2 sequence (whole entry): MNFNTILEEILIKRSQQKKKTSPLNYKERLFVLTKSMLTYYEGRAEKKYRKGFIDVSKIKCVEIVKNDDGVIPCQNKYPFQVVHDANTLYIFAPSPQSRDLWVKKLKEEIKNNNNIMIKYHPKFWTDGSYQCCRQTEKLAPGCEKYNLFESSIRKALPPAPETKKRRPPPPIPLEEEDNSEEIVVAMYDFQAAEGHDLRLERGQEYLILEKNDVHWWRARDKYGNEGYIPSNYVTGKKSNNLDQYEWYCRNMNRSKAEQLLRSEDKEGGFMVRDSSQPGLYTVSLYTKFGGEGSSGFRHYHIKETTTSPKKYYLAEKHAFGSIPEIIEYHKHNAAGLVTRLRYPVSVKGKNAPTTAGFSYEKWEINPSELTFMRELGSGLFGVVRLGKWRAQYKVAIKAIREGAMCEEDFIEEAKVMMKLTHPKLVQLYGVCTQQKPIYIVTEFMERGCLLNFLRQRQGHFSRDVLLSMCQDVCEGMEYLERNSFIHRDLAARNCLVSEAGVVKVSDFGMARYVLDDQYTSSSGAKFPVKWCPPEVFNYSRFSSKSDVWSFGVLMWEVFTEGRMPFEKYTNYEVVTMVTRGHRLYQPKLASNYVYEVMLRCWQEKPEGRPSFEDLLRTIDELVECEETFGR

[6] = target: Tyrosine-protein kinase receptor UFO (Homo sapiens) (UniProt P30530); assay: Selectivity interaction (SelectScreen profiling (Invitrogen)) EUB0000607a AXL; details: at 2 µM
Tyrosine-protein kinase receptor UFO (Homo sapiens), sequence (P30530 whole entry): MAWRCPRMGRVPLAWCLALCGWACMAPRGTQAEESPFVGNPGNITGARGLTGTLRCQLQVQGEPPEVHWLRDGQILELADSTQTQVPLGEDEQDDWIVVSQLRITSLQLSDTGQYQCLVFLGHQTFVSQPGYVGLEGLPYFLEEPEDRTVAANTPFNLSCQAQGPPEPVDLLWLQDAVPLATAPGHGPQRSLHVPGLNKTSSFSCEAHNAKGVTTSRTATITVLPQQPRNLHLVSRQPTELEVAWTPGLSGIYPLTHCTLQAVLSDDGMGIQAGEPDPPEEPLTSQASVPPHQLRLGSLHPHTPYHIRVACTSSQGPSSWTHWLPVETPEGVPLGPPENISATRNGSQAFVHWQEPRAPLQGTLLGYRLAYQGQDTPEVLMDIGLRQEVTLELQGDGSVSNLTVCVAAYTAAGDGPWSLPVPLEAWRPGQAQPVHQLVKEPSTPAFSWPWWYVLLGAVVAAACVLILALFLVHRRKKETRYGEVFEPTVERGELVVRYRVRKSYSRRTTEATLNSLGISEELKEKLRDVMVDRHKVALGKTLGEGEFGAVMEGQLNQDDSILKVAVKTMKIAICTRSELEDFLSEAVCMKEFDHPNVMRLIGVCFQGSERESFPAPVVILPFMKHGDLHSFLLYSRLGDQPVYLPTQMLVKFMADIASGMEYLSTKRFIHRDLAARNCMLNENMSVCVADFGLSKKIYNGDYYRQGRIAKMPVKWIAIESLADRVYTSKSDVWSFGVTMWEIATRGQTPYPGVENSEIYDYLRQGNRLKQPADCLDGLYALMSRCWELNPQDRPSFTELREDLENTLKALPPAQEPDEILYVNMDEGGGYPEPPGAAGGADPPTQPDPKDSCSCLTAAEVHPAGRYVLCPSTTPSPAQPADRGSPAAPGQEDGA

[7] = target: Rho-associated protein kinase 2 (Homo sapiens, UniProt O75116); assay: Selectivity interaction (SelectScreen profiling (Invitrogen)) EUB0000607a ROCK2; details: at 2 µM
Rho-associated protein kinase 2, sequence (O75116 whole entry, looked up): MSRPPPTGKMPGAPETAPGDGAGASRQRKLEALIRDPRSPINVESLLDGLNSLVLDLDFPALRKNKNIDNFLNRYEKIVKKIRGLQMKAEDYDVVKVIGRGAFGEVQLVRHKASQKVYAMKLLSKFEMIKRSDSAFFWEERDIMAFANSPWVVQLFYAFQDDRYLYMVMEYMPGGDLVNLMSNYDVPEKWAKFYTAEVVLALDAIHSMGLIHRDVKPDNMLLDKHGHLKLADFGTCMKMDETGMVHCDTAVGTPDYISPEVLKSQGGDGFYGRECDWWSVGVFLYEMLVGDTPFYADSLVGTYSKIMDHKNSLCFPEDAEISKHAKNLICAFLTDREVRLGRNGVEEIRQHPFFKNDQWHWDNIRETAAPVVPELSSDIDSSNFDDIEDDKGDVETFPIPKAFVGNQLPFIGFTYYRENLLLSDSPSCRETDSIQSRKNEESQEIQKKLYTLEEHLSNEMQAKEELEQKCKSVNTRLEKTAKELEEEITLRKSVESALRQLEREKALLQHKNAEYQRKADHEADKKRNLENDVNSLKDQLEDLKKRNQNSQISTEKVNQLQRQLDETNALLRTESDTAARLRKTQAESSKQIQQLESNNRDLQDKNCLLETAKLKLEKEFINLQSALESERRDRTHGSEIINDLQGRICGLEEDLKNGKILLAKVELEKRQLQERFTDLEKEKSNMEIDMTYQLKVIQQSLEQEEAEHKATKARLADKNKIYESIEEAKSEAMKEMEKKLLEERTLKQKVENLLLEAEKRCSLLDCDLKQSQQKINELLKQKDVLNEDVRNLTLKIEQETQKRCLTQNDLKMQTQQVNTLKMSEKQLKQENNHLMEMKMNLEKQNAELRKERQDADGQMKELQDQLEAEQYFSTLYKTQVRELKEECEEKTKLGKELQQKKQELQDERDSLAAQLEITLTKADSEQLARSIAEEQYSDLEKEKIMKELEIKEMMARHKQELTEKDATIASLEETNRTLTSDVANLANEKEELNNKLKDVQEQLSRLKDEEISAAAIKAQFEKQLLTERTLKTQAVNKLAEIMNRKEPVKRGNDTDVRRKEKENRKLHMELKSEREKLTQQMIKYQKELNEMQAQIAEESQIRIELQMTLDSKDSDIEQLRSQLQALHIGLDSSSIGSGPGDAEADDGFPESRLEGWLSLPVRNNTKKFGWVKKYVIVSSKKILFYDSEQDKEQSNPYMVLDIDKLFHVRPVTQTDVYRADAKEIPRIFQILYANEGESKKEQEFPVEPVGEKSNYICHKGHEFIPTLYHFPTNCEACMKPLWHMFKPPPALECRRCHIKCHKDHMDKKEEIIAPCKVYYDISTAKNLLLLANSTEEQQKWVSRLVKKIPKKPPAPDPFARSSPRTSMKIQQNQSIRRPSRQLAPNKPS

[8] = target: Serine/threonine-protein kinase pim-2 (Homo sapiens, UniProt Q9P1W9); assay: Selectivity interaction (KinomeScan (DiscoverX)) EUB0000595a PIM2; details: at 10 µM
Serine/threonine-protein kinase pim-2, sequence (Q9P1W9 whole entry, looked up): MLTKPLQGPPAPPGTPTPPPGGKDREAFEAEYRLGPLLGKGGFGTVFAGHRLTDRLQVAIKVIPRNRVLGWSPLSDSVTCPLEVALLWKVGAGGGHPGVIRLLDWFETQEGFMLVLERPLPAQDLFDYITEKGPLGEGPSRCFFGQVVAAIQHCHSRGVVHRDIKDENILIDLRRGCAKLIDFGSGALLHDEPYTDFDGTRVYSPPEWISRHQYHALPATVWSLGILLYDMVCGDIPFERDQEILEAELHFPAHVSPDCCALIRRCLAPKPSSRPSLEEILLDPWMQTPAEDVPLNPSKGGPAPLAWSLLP

[9] = target: Cyclin-dependent kinase 18 (Homo sapiens) (UniProt Q07002); assay: Selectivity interaction (KinomeScan (DiscoverX)) EUB0000045b CDK18
Cyclin-dependent kinase 18 (Homo sapiens), sequence (Q07002 whole entry): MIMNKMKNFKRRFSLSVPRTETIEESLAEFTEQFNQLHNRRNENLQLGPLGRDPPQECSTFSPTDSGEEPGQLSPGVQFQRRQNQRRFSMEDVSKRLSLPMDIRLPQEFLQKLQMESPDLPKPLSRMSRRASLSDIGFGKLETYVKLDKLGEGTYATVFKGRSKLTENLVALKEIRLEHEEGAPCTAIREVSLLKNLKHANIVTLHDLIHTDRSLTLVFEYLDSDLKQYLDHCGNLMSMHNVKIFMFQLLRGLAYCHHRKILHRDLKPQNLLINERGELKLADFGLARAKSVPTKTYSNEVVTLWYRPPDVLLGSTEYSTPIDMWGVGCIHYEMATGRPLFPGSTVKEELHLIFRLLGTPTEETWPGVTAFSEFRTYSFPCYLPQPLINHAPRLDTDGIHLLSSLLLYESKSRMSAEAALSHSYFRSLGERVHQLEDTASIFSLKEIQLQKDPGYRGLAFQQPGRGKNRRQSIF

[10] = target: Receptor tyrosine-protein kinase erbB-4 (Homo sapiens, UniProt Q15303); assay: Selectivity interaction (Kinase panel (literature)) EUB0001199aCl ERBB4; details: at 1 µM
Receptor tyrosine-protein kinase erbB-4, sequence (Q15303 whole entry): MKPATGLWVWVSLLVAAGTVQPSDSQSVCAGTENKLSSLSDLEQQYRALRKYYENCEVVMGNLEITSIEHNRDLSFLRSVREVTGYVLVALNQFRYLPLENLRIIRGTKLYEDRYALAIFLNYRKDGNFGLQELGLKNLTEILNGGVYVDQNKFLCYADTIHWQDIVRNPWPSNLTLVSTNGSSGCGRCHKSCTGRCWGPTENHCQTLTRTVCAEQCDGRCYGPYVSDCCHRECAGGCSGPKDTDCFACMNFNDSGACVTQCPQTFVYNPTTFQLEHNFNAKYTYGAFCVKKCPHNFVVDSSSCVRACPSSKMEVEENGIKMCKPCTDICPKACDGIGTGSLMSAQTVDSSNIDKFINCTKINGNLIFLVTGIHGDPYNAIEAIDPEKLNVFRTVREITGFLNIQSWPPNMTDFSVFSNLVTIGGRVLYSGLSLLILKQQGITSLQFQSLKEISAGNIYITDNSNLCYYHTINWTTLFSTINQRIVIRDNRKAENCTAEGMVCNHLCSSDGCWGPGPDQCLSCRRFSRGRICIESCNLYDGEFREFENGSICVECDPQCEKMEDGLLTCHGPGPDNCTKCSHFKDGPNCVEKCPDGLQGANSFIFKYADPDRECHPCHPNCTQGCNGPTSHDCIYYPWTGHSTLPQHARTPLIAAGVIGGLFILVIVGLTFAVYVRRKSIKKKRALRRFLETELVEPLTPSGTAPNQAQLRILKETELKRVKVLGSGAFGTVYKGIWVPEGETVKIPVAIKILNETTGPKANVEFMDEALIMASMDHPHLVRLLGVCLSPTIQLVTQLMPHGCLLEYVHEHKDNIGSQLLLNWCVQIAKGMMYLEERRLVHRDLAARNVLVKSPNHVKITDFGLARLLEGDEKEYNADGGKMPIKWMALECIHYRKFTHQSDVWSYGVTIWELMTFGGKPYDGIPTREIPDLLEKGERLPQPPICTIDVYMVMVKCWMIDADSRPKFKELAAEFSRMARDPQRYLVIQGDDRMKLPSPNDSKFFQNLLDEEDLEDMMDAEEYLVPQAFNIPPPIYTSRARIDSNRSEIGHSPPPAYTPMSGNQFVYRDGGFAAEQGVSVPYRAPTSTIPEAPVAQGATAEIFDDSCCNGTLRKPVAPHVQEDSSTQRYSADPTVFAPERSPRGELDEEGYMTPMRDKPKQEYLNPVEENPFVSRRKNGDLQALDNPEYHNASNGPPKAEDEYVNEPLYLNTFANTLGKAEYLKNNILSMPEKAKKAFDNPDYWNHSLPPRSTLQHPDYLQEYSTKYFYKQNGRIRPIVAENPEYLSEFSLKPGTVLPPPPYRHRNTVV

[11] = target: T3, Calcium/calmodulin-dependent protein kinase type IV (Homo sapiens) (UniProt Q16566); assay: Selectivity interaction (Ambit KINOMEscan and KiNATiv profiling in Jurkat cells) EUB0000090b CAMK4; assay type: cell-based; details: at 1 µM
T3 sequence (whole entry): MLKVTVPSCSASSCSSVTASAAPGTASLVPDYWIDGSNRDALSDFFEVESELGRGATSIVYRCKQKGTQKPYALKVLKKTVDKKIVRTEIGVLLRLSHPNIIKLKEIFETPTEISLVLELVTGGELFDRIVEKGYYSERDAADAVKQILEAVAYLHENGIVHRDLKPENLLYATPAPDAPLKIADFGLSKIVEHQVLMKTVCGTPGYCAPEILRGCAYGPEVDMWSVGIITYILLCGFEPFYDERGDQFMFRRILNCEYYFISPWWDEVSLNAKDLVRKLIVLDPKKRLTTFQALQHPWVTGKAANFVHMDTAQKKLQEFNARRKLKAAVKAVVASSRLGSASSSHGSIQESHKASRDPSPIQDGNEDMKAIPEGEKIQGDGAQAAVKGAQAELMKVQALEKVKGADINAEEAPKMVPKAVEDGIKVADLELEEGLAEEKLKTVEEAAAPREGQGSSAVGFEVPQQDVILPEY

## COc1cc(N(C)c2ccnc3ccc(C(F)(F)F)cc23)cc(OC)c1OC
[1]
  % binding: 88%

## CN(C)CCOc1ccc(-c2nc(-c3ccncc3)c(-c3ccc4c(c3)CC/C4=N\O)[nH]2)cc1
[2]
  % of control: 98%

## Cn1cc(-n2cnc3c(NCc4nc5cc(Cl)c(Cl)cc5[nH]4)nc(N4CCOCC4)nc32)cn1
[3]
  % of inhibition: -24.9%

## CC[C@@H]1[C@H](F)C(=O)N[C@@H]1COc1nccc2cc(C(N)=O)c(OC)cc12 [ZIMLOVISERTIB]
[4]
  % of inhibition: 13.7%
[5]
  % of inhibition: -52.3%

## CNC(=O)Nc1ccc(-c2nc(N3CC4CCC(C3)O4)c3cnn(C4CCC5(CC4)OCCO5)c3n2)cc1
[6]
  % of inhibition: 2%
[7]
  % of inhibition: 5%

## COCC(=O)NC/C=C/c1ccc2ncnc(Nc3ccc(Oc4ccc(C)nc4)c(C)c3)c2c1 [CP-724714]
[8]
  % of control: 100%

## C=CC(=O)Nc1cc(-n2c(=O)ccc3cnc4ccc(-c5ccc(NS(C)(=O)=O)cc5)cc4c32)ccc1C
[9]; at 1 µM
  % of control: 83%
[9]; at 10 µM
  % of control: 88%

## CN1Cc2nccc(-c3cn(C)nc3-c3ccc(F)cc3)c2C1=O
[10]
  % of inhibition: 15%

## CN(C)C/C=C/C(=O)Nc1ccc(C(=O)N2CCCC(Nc3ncc(Cl)c(-c4c[nH]c5ccccc45)n3)C2)cc1 (configuration not stated)
[11]
  % of control: 69%
